No end group written: not given here.
T1: KGF (Homo sapiens, UniProt P21781)
T1 construct: made in house
T1 sequence (P21781 32-194): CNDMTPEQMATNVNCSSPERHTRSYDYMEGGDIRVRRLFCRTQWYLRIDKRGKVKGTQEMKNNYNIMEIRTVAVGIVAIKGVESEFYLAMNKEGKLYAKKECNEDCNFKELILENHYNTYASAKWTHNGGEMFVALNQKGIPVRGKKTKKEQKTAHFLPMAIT

B1: aFGF: Acidic FGF purified from bovine brain, from Upstate Biotechnology (protein, UniProt P03968 16-155, looked up)
Fibroblast growth factor 1: FNLPLGNYKKPKLLYCSNGGYFLRILPDGTVDGTKDRSDQHIQLQLCAESIGEVYIKSTETGQFLAMDTDGLLYGSQTPNEECLFLERLEENHYNTYISKKHAEKHWFVGLKKNGRSKLGPRTHFGQKAILFLPLPVSSD

Columns and labels:
KGF receptor (KGFR) = target: T2, KGF receptor (KGFR) (Mus musculus, UniProt P21803); test: [125I]-KGF binding to NIH/3T3 cells overexpressing KGFR (competition); details: NIH3T3/KGFR transfectants; read-out: displacement of 50% of the radiolabeled KGF
T2 construct: expressed in transfected cells; host or cells: NIH/3T3
Protocol: Values shown are the mean of triplicate samples. Results are representative of three separate experiments.
[^125 I]-KGF binding to NIH/3T3 cells overexpressing KGFR was measured as described in Bottaro et al., supra. Competition studies were performed with unlabeled KGF or peptides as indicated.

Solubility in water = format: physicochemical
KGF = target: T1, KGF; test: KGF radioimmunoassay: immunoprecipitation of [125I]-KGF by monoclonal antibody 1G4; format: binding
Protocol: Upper Panel: Immunoprecipitation of [^125 I]-KGF competed by KGF, aFGF, aFGF+heparin (30 μg/ml), peptide 412 (SEQ ID NO 2) or peptide 341. Lower Panel: Immunoprecipitation of [^125 I]-KGF competed by KGF, KGF+heparin (1, 10, or 30 μg/ml, as indicated), peptide 412 (SEQ ID NO 2), or peptide 412 (SEQ ID NO 2)+heparin (1, 10, or 30 μg/ml, as indicated). Values are the mean of duplicate samples, expressed as % maximum [^125 I]-KGF bound. Raw values for background and maximum [^125 I]-KGF bound were approximately 300 and 12,000 cpm/sample, respectively. Results are representative of three separate experiments.
[^125 I]-KGF was immunoprecipitated by 1G4 in the presence of unlabeled KGF, aFGF, or peptides as indicated. Briefly, 1G4 (4 ng/ml final concentration), [^125 I]-KGF (30,000 cpm), and appropriate competitors were mixed in 200 μl of buffer containing 10 mM Tris (pH 7.4), 130 mm NaCl, 1 mM EDTA, 10 mM KC1, 1% NP-40, 0.1% SDS, 0.05% Tween-20, and 0.3% nonfat dry milk, and incubated for 24h at 4° C. Antigen-antibody complex was recovered by adding 30 ul (50% suspension) GammaBind-G Sepharose, incubating an additional 30 min at 4° C. (turning gently), and brief centrifugation (5 min at 14,000×g, 4° C.). Pelleted material was washed three times ([…] each) with cold buffer, and radioactivity was measured by gamma counting.

KGF mitogenic activity = details: Ron et al.; cited from earlier work

T2 sequence (P21803 22-707 isoform P21803-2 limits assumed): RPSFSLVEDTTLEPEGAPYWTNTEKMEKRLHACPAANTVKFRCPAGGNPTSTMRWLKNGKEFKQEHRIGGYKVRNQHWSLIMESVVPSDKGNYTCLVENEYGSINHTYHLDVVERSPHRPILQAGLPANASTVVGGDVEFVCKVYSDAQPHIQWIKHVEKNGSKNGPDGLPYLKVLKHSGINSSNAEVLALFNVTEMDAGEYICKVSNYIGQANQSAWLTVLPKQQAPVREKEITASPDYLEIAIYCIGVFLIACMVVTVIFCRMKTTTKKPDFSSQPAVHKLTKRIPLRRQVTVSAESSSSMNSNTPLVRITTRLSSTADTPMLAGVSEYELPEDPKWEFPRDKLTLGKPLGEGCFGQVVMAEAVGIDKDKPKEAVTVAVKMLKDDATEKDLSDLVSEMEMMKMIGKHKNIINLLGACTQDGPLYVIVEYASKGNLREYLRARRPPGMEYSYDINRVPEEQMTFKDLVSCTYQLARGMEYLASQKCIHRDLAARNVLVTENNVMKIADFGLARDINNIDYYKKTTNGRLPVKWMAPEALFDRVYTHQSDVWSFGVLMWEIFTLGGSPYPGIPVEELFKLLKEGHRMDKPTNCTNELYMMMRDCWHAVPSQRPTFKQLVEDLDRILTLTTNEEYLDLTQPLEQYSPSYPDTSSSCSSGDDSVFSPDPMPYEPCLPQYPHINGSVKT

Molecule | IC50 (KGF receptor (KGFR)) | water solubility relative to its highest ED50 (Solubility in water) | competition / displacement of [125I]-KGF from 1G4 (KGF; KGF RIA) | other results
HSGINSSNAEVLALFNVTEM [peptide 367] | ~4 µM | approximately 30 fold |  | solubility (Solubility in water; read-out: limit of solubility in water): 125 µM
HSGINSSNAEVLALFNVTEMDAGEY [peptide 412] | ~4 µM | > 3000 fold |  | IC50 (KGF; KGF RIA, read-out: concentration required to achieve 50% displacement of [125I]-KGF from 1G4): ~1 µM; Kd (KGF; consistent with data from receptor binding assay and RIA, read-out: Kd for KGF/peptide interactions): 1 to 2 µM
heparin [reference compound] |  |  | had no effect | effect on KGF mitogenesis (KGF mitogenic activity): inhibits KGF mitogenesis
B1 |  |  | but not aFGF, even at a 1000-fold higher concentration | competition in the KGF RIA with addition of heparin (KGF; heparin 30 μg/ml): did not cause aFGF to compete

From patent US5578566A, “KGF receptor-derived antagonists of KGF binding” (The United States of America as represented by the …, priority 1993, dated 1996)
